What was measured:
Experiment in all cases: Bliss excess, mean over the matrix (fraction); higher = more synergy
BT-20 (Breast Carcinoma) = tested on: BT-20 (Breast Carcinoma)
How it was run: (§1)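 Bliss excess equals the observed combination effect minus the expected value EA + EB − EA·EB, where EA and EB are the effects of each agent alone. Combination Emax is the second-highest inhibition within the matrix. Inhibition was scaled from CellTiter-Glo 2.0 luminescence, with 0 set by vehicle wells and 1 by blank wells, after 72 hours of two-drug dosing of cells plated in 1536-well plates.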

[1] = tested on: KLE (Endometrial Carcinoma)
How it was run: as §1

[2] = tested on: DG-75 (Burkitt's Lymphoma)
How it was run: as §1

[3] = tested on: OCUB-M (Breast Carcinoma)
How it was run: as §1

[4] = tested on: NCI-H2405 (Lung Adenocarcinoma)
How it was run: as §1

EW-13 (Ewing's Sarcoma) = tested on: EW-13 (Ewing's Sarcoma)
How it was run: as §1

[5] = tested on: SCC-9 (Oral Cavity Carcinoma)
How it was run: as §1

[6] = tested on: EBC-1 (Squamous Cell Lung Carcinoma)
How it was run: as §1

[7] = tested on: OVISE (Ovarian Carcinoma)
How it was run: as §1

[8] = tested on: HuP-T3 (Pancreatic Carcinoma)
How it was run: as §1

[9] = tested on: NCI-H322M (Lung Adenocarcinoma)
How it was run: as §1

[10] = tested on: LOU-NH91 (Squamous Cell Lung Carcinoma)
How it was run: as §1

IMR-5 (Neuroblastoma) = tested on: IMR-5 (Neuroblastoma)
How it was run: as §1

[11] = tested on: SNU-C1 (Colorectal Carcinoma)
How it was run: as §1

[12] = tested on: ASH-3 (Thyroid Gland Carcinoma)
How it was run: as §1

[13] = tested on: LC4-1 (B-Lymphoblastic Leukemia)
How it was run: as §1

[14] = tested on: H-EMC-SS (Chondrosarcoma)
How it was run: as §1

[15] = tested on: KINGS-1 (Low Grade Glioma)
How it was run: as §1

[16] = tested on: KU-19-19 (Bladder Carcinoma)
How it was run: as §1

| Compound | Bliss excess (BT-20 (Breast Carcinoma)) | Bliss excess [1] | Bliss excess [2] | Bliss excess [3] | Bliss excess [4] | Bliss excess (EW-13 (Ewing's Sarcoma)) | Bliss excess [5] | Bliss excess [6] | Bliss excess [7] | Bliss excess [8] | Bliss excess [9] | Bliss excess [10] | Bliss excess (IMR-5 (Neuroblastoma)) | Bliss excess [11] | Bliss excess [12] | Bliss excess [13] | Bliss excess [14] | Bliss excess [15] | Bliss excess [16] |
| --- | --- | --- | --- | --- | --- | --- | --- | --- | --- | --- | --- | --- | --- | --- | --- | --- | --- | --- | --- |
| CN(C)CCCOc1ccc(-c2ccc3ncc4c(c3c2)n(C2CCOCC2)c(=O)n4C)cn1 [AZD0156] + CCN(CCO)CCCOc1ccc2c(Nc3cc(CC(=O)Nc4cccc(F)c4)[nH]n3)ncnc2c1 [AZD2811] (first compound max 1 µM, 7x7, partner max 1 µM) | -0.0276 | -0.0232 | 0.057 | -0.0736 | -0.0241 | 0.009 | -0.014 | -0.0117 | -0.0314 | -0.0379 | -0.0448 | -0.024 | -0.0257 | -0.0245 | 0.0032 | -0.108 | -0.0504 | -0.0173 | 0.0358 |
| COc1cccc(OCCCN)c1-c1cc(Nc2cnc(C#N)cn2)n[nH]1 [Prexasertib] + CN(C)CCCOc1ccc(-c2ccc3ncc4c(c3c2)n(C2CCOCC2)c(=O)n4C)cn1 [AZD0156] (first compound max 1 µM, 7x7, partner max 1 µM) | -0.026 | 0.002 | -0.0093 | -0.022 | -0.0037 | 0.0557 | -0.0159 | -0.0297 | 0.0209 | 0.0713 | 0.011 | -0.0374 | -0.015 | -0.0336 | 0.0014 | -0.0113 | -0.0264 | -0.0927 | -0.0046 |
| COc1cccc(OCCCN)c1-c1cc(Nc2cnc(C#N)cn2)n[nH]1 [Prexasertib] + O=C(c1cc(Cc2n[nH]c(=O)c3ccccc23)ccc1F)N1CCN(C(=O)C2CC2)CC1 [Olaparib] (first compound max 1 µM, 7x7, partner max 10 µM) | 0.0405 | 0.0514 | -0.0819 | 0.0018 | -0.0339 | -0.0562 | -0.0181 | -0.0052 | -0.0578 | -0.0595 | -0.126 | 0.0427 | -0.0097 | -0.153 | 0.027 | -0.0432 | -0.0445 | -0.0979 | 0.0061 |
| CCN(CCO)CCCOc1ccc2c(Nc3cc(CC(=O)Nc4cccc(F)c4)[nH]n3)ncnc2c1 [AZD2811] + O=C(c1cc(Cc2n[nH]c(=O)c3ccccc23)ccc1F)N1CCN(C(=O)C2CC2)CC1 [Olaparib] (first compound max 1 µM, 7x7, partner max 10 µM) | 0.0358 | -0.282 | 0.0063 | -0.0413 | -0.0075 | -0.0532 | -0.0188 | -0.0077 | -0.0255 | -0.0195 | -0.0063 | 0.0461 | -0.0208 | -0.0016 | 0.0118 | -0.0598 | -0.0353 | -0.0579 | 0.0173 |
| C[C@@H]1COCCN1c1cc(C2([S@](C)(=N)=O)CC2)nc(-c2ccnc3[nH]ccc23)n1 [AZD6738] + O=C(c1cc(Cc2n[nH]c(=O)c3ccccc23)ccc1F)N1CCN(C(=O)C2CC2)CC1 [Olaparib] (first compound max 10 µM, 7x7, partner max 10 µM) | 0.0472 | -0.0307 | -0.0619 | 0.0347 | 0.0132 | -0.0574 | 0.0422 | -0.0153 | 0.0393 | 0.0066 | -0.0491 | 0.0035 | 0.0432 | -0.0345 | 0.0361 | -0.009 | -0.0558 | 0.0032 | -0.032 |
| C=CCn1c(=O)c2cnc(Nc3ccc(N4CCN(C)CC4)cc3)nc2n1-c1cccc(C(C)(C)O)n1 [AZD1775] + C[C@@H]1COCCN1C2=NC(=NC(=C2)C3(CC3)[S@](=N)(=O)C)C4=C5C=CNC5=NC=C4 [AZD6738] (first compound max 1 µM, partner max 10 µM) | 0.0448 | -0.0361 | 0.0482 | 0.0642 | -0.0039 | 0.0217 | -0.0425 | 0.0592 | -0.0399 | 0.0338 | -0.0234 | -0.0111 | 0.085 | 0.0303 | 0.0987 | -0.0011 | -0.0843 | -0.0475 | -0.0113 |
| COc1cc2c(cc1OCCCCCOc1cc3c(cc1OC)C(=O)N1C=C(C)C[C@H]1C=N3)N=C[C@@H]1CC(C)=CN1C2=O [SG3199] + O=C(c1cc(Cc2n[nH]c(=O)c3ccccc23)ccc1F)N1CCN(C(=O)C2CC2)CC1 [Olaparib] (first compound max 0.001 µM, 7x7, partner max 10 µM) | -0.0366 | 0.0057 | 0.0064 | -0.0502 | -0.043 | -0.0415 | -0.0352 | -0.014 | -0.0431 | -0.0442 | -0.0014 | -0.0224 | 0.0167 | -0.0446 | -0.0232 | -0.0371 | -0.0812 | -0.0434 | -0.0041 |
| Cc1cc2ncnn2cc1Nc1ncc2c(n1)n(C1CCOCC1)c(=O)n2C [AZD7648] + CCN(CCO)CCCOc1ccc2c(Nc3cc(CC(=O)Nc4cccc(F)c4)[nH]n3)ncnc2c1 [AZD2811] (first compound max 10 µM, 7x7, partner max 1 µM) | -0.0432 | -0.0193 | 0.0393 | -0.0108 | -0.015 | 0.0259 | 0.0414 | 0.0147 | -0.0105 | 0.0003 | -0.0182 | 0.0693 | -0.0188 | -0.0184 | 0.0309 | -0.114 | -0.0452 | 0.0339 | 0.0227 |
| Cc1cc2ncnn2cc1Nc1ncc2c(n1)n(C1CCOCC1)c(=O)n2C [AZD7648] + C[C@@H]1COCCN1C2=NC(=NC(=C2)C3(CC3)[S@](=N)(=O)C)C4=C5C=CNC5=NC=C4 [AZD6738] (first compound max 10 µM, 7x7, partner max 10 µM) | 0.0399 | -0.0639 | -0.0477 | 0.0509 | 0.0068 | 0.0039 | 0.0507 | 0.0513 | 0.0508 | -0.0453 | -0.0048 | 0.0337 | 0.0088 | -0.0708 | 0.0459 | 0.0469 | 0.0095 | 0.0412 | -0.0127 |
| CN(C)CCCOc1ccc(-c2ccc3ncc4c(c3c2)n(C2CCOCC2)c(=O)n4C)cn1 [AZD0156] + C=CCn1c(=O)c2cnc(Nc3ccc(N4CCN(C)CC4)cc3)nc2n1-c1cccc(C(C)(C)O)n1 [AZD1775] (first compound max 1 µM, partner max 1 µM) | -0.0937 | 0.0559 | 0.0097 | -0.0958 | -0.0544 | 0.0215 | -0.036 | -0.0603 | -0.0374 | -0.051 | -0.0027 | -0.0349 | -0.0214 | -0.0401 | 0.0012 | -0.0353 | -0.0535 | -0.0779 | -0.0043 |
| COc1cccc(OCCCN)c1-c1cc(Nc2cnc(C#N)cn2)n[nH]1 [Prexasertib] + C[C@@H]1COCCN1C2=NC(=NC(=C2)C3(CC3)[S@](=N)(=O)C)C4=C5C=CNC5=NC=C4 [AZD6738] (first compound max 1 µM, 7x7, partner max 10 µM) | -0.0218 | -0.0393 | -0.0381 | 0.0421 | 0.0046 | 0.0572 | 0.0803 | -0.0113 | 0.0341 | 0.0032 | -0.0367 | 0.0295 | -0.01 | -0.0078 | 0.0902 | -0.0033 | -0.0013 | 0.0426 | -0.0796 |
| COc1cccc(OCCCN)c1-c1cc(Nc2cnc(C#N)cn2)n[nH]1 [Prexasertib] + Cc1cc2ncnn2cc1Nc1ncc2c(n1)n(C1CCOCC1)c(=O)n2C [AZD7648] (first compound max 1 µM, 7x7, partner max 10 µM) | -0.0536 | 0.0213 | -0.055 | -0.0611 | -0.0386 | -0.015 | 0.0092 | -0.0054 | -0.0333 | 0.016 | -0.0083 | 0.007 | -0.0065 | -0.0873 | 0.0598 | -0.0209 | -0.021 | -0.0464 | -0.0038 |
| CCN(CCO)CCCOc1ccc2c(Nc3cc(CC(=O)Nc4cccc(F)c4)[nH]n3)ncnc2c1 [AZD2811] + C=CCn1c(=O)c2cnc(Nc3ccc(N4CCN(C)CC4)cc3)nc2n1-c1cccc(C(C)(C)O)n1 [AZD1775] (first compound max 1 µM, partner max 1 µM) | -0.0073 | -0.0513 | 0.086 | 0.0312 | -0.021 | 0.0393 | -0.0179 | 0.0075 | -0.0332 | -0.0366 | -0.0188 | -0.0257 | -0.0064 | -0.0321 | -0.016 | -0.109 | -0.0261 | -0.0173 | -0.014 |
| COc1cccc2c1C(=O)c1c(O)c3c(c(O)c1C2=O)C[C@@](O)(C(=O)CO)C[C@@H]3O[C@H]1C[C@H](N)[C@H](O)[C@H](C)O1 [Doxorubicin] + Cc1cc2ncnn2cc1Nc1ncc2c(n1)n(C1CCOCC1)c(=O)n2C [AZD7648] (first compound max 1 µM, 7x7, partner max 10 µM) | 0.0371 | -0.002 | 0.0787 | 0.0696 | -0.0042 | 0.0376 | -0.0027 | 0.0275 | 0.0341 | 0.0022 | 0.0751 | 0.0236 | 0.194 | -0.0037 | 0.0829 | 0.111 | -0.0179 | 0.0173 | 0.0843 |
| CN(C)CCCOc1ccc(-c2ccc3ncc4c(c3c2)n(C2CCOCC2)c(=O)n4C)cn1 [AZD0156] + C[C@@H]1COCCN1C2=NC(=NC(=C2)C3(CC3)[S@](=N)(=O)C)C4=C5C=CNC5=NC=C4 [AZD6738] (first compound max 1 µM, 7x7, partner max 10 µM) | 0.0152 | -0.0567 | 0.0645 | -0.026 | -0.0027 | 0.0006 | -0.0424 | 0.0195 | 0.0317 | 0.0181 | -0.0076 | -0.0001 | -0.0432 | 0.0001 | 0.0429 | -0.0743 | -0.0707 | -0.0474 | 0.0275 |
| CS(=O)(=O)CCNCc1ccc(-c2ccc3ncnc(Nc4ccc(OCc5cccc(F)c5)c(Cl)c4)c3c2)o1 [Lapatinib] + NC1(c2ccc(-c3nc4ccn5c(=O)[nH]nc5c4cc3-c3ccccc3)cc2)CCC1 [MK-2206] (first compound max 10 µM, 7x7, partner max 10 µM) |  |  |  | 0.142 | -0.111 |  | 0.0038 |  | 0.0286 |  |  |  |  | -0.0184 | 0.0178 | -0.0073 | -0.0597 | 0.032 | -0.0103 |

From the supplement of paper PMC11061612
